Test results taken from US12077503B2, “Substituted cyclic amides and their use as herbicides” (FMC CORPORATION, priority 2015, dated 2024).

Key:
Type in all cases: in vivo
Kochia (Kochia scoparia) [1] = experiment: Test A preemergence; settings: Bassia scoparia, pre-emergence, 240 h, preemergence, 0 to 100 scale where 0 is no effect and 100 is complete control, read-out: Kochia plant response rating; for pest or weed control at 125 g/ha: 125 g ai/ha, visual injury rating, approximately 10 d; for pest or weed control at 500 g/ha: 500 g ai/ha
In short: (§1)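 Seeded soil received test chemicals as a preemergence directed spray, and seedlings at one to two leaves, 2–10 cm tall, received them postemergence, in a non-phytotoxic, surfactant-containing solvent mixture. Pots were held in a greenhouse for approximately 10 d, then rated for injury from 0, no effect, to 100, complete control.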

[2] = tested on: barnyardgrass (Echinochloa crus-galli); experiment: Test A preemergence; settings: Echinochloa crus-galli, pre-emergence, 240 h, preemergence, 0 to 100 scale where 0 is no effect and 100 is complete control, read-out: Barnyardgrass plant response rating; for pest or weed control at 125 g/ha: 125 g ai/ha, visual injury rating, approximately 10 d; for pest or weed control at 500 g/ha: 500 g ai/ha
In short: as §1

[3] = tested on: giant foxtail (Setaria faberii); experiment: Test A preemergence; settings: Setaria faberi, pre-emergence, 240 h, preemergence, 0 to 100 scale where 0 is no effect and 100 is complete control, read-out: Foxtail, Giant plant response rating; for pest or weed control at 125 g/ha: 125 g ai/ha, visual injury rating, approximately 10 d; for pest or weed control at 500 g/ha: 500 g ai/ha
In short: as §1

[4] = tested on: pigweed (Amaranthus retroflexus); experiment: Test A preemergence; settings: Amaranthus retroflexus, pre-emergence, 240 h, preemergence, 0 to 100 scale where 0 is no effect and 100 is complete control, read-out: Pigweed plant response rating; for pest or weed control at 125 g/ha: 125 g ai/ha, visual injury rating, approximately 10 d; for pest or weed control at 500 g/ha: 500 g ai/ha
[5] = tested on: ragweed (common ragweed, Ambrosia elatior); experiment: Test A preemergence; settings: Ambrosia artemisiifolia, pre-emergence, 240 h, preemergence, 0 to 100 scale where 0 is no effect and 100 is complete control, read-out: Ragweed plant response rating; for pest or weed control at 125 g/ha: 125 g ai/ha, visual injury rating, approximately 10 d; for pest or weed control at 500 g/ha: 500 g ai/ha
In short: as §1

[6] = tested on: ryegrass, Italian (Italian ryegrass, Lolium multiflorum); experiment: Test A preemergence; settings: Lolium multiflorum, pre-emergence, 240 h, preemergence, 0 to 100 scale where 0 is no effect and 100 is complete control, read-out: Ryegrass, Italian plant response rating; for pest or weed control at 125 g/ha: 125 g ai/ha, visual injury rating, approximately 10 d; for pest or weed control at 500 g/ha: 500 g ai/ha
In short: as §1

[7] = tested on: Galium (catchweed bedstraw, Galium aparine); experiment: Test A postemergence; settings: Galium, post-emergence, 240 h, postemergence; for pest or weed control at 125 g/ha: 125 g ai/ha, visual injury vs untreated controls after approx. 10 d, 0 = no effect, 100 = complete control, read-out: Galium plant response rating (0 to 100 scale); for pest or weed control at 500 g/ha: 500 g ai/ha, 0 to 100 scale, 0 is no effect, 100 is complete control, read-out: Galium plant response rating
In short: as §1

Kochia (Kochia scoparia) [8] = experiment: Test A postemergence; settings: Bassia scoparia, post-emergence, 240 h, postemergence; for pest or weed control at 125 g/ha: 125 g ai/ha, visual injury vs untreated controls after approx. 10 d, 0 = no effect, 100 = complete control, read-out: Kochia plant response rating (0 to 100 scale); for pest or weed control at 500 g/ha: 500 g ai/ha, 0 to 100 scale, 0 is no effect, 100 is complete control, read-out: Kochia plant response rating
In short: as §1

[9] = tested on: barnyardgrass (Echinochloa crus-galli); experiment: Test A postemergence; settings: Echinochloa crus-galli, post-emergence, 240 h, postemergence; for pest or weed control at 125 g/ha: 125 g ai/ha, visual injury vs untreated controls after approx. 10 d, 0 = no effect, 100 = complete control, read-out: Barnyardgrass plant response rating (0 to 100 scale); for pest or weed control at 500 g/ha: 500 g ai/ha, 0 to 100 scale, 0 is no effect, 100 is complete control, read-out: Barnyardgrass plant response rating
In short: as §1

[10] = tested on: blackgrass (Alopecurus myosuroides); experiment: Test A postemergence; settings: Alopecurus myosuroides, post-emergence, 240 h, postemergence; for pest or weed control at 125 g/ha: 125 g ai/ha, visual injury vs untreated controls after approx. 10 d, 0 = no effect, 100 = complete control, read-out: Blackgrass plant response rating (0 to 100 scale); for pest or weed control at 500 g/ha: 500 g ai/ha, 0 to 100 scale, 0 is no effect, 100 is complete control, read-out: Blackgrass plant response rating
In short: as §1

corn (Zea mays) = experiment: Test A postemergence; settings: Zea mays, post-emergence, 240 h, postemergence; for plant injury at 125 g/ha: 125 g ai/ha, visual injury vs untreated controls after approx. 10 d, 0 = no effect, 100 = complete control, read-out: Corn plant response rating (0 to 100 scale); for plant injury at 500 g/ha: 500 g ai/ha, 0 to 100 scale, 0 is no effect, 100 is complete control, read-out: Corn plant response rating
In short: as §1

[11] = tested on: giant foxtail (Setaria faberii); experiment: Test A postemergence; settings: Setaria faberi, post-emergence, 240 h, postemergence; for pest or weed control at 125 g/ha: 125 g ai/ha, visual injury vs untreated controls after approx. 10 d, 0 = no effect, 100 = complete control, read-out: Foxtail, Giant plant response rating (0 to 100 scale); for pest or weed control at 500 g/ha: 500 g ai/ha, 0 to 100 scale, 0 is no effect, 100 is complete control, read-out: Foxtail, Giant plant response rating
In short: as §1

[12] = tested on: pigweed (Amaranthus retroflexus); experiment: Test A postemergence; settings: Amaranthus retroflexus, post-emergence, 240 h, postemergence; for pest or weed control at 125 g/ha: 125 g ai/ha, visual injury vs untreated controls after approx. 10 d, 0 = no effect, 100 = complete control, read-out: Pigweed plant response rating (0 to 100 scale); for pest or weed control at 500 g/ha: 500 g ai/ha, 0 to 100 scale, 0 is no effect, 100 is complete control, read-out: Pigweed plant response rating
In short: as §1

[13] = tested on: ragweed (common ragweed, Ambrosia elatior); experiment: Test A postemergence; settings: Ambrosia artemisiifolia, post-emergence, 240 h, postemergence; for pest or weed control at 125 g/ha: 125 g ai/ha, visual injury vs untreated controls after approx. 10 d, 0 = no effect, 100 = complete control, read-out: Ragweed plant response rating (0 to 100 scale); for pest or weed control at 500 g/ha: 500 g ai/ha, 0 to 100 scale, 0 is no effect, 100 is complete control, read-out: Ragweed plant response rating
In short: as §1

[14] = tested on: ryegrass, Italian (Italian ryegrass, Lolium multiflorum); experiment: Test A postemergence; settings: Lolium multiflorum, post-emergence, 240 h, postemergence; for pest or weed control at 125 g/ha: 125 g ai/ha, visual injury vs untreated controls after approx. 10 d, 0 = no effect, 100 = complete control, read-out: Ryegrass, Italian plant response rating (0 to 100 scale); for pest or weed control at 500 g/ha: 500 g ai/ha, 0 to 100 scale, 0 is no effect, 100 is complete control, read-out: Ryegrass, Italian plant response rating
In short: as §1

[15] = tested on: wheat (Triticum aestivum); experiment: Test A postemergence; settings: Triticum aestivum, post-emergence, 240 h, postemergence; for plant injury at 125 g/ha: 125 g ai/ha, visual injury vs untreated controls after approx. 10 d, 0 = no effect, 100 = complete control, read-out: Wheat plant response rating (0 to 100 scale); for plant injury at 500 g/ha: 500 g ai/ha, 0 to 100 scale, 0 is no effect, 100 is complete control, read-out: Wheat plant response rating
In short: as §1

Row | SMILES | pest or weed control at 125 g/ha (Kochia (Kochia scoparia) [1]) | pest or weed control at 500 g/ha (Kochia (Kochia scoparia) [1]) | pest or weed control at 125 g/ha [2] | pest or weed control at 500 g/ha [2] | pest or weed control at 125 g/ha [3] | pest or weed control at 500 g/ha [3] | pest or weed control at 125 g/ha [4] | pest or weed control at 500 g/ha [4] | pest or weed control at 125 g/ha [5] | pest or weed control at 500 g/ha [5] | pest or weed control at 125 g/ha [6] | pest or weed control at 500 g/ha [6] | pest or weed control at 125 g/ha [7] | pest or weed control at 500 g/ha [7] | pest or weed control at 125 g/ha (Kochia (Kochia scoparia) [8]) | pest or weed control at 500 g/ha (Kochia (Kochia scoparia) [8]) | pest or weed control at 125 g/ha [9] | pest or weed control at 500 g/ha [9] | pest or weed control at 125 g/ha [10] | pest or weed control at 500 g/ha [10] | other results
1 | CN1CC[C@H](c2ccc(C(F)(F)F)cc2)[C@@H](C(=O)Nc2ccccc2C(F)(F)F)C1=O [Compound 1224] | 0% | 0% | 40% | 80% | 80% | 90% | 50% | 70% | 0% | 20% | 0% | 20% | 0% | 40% | 0% | 0% | 70% | 90% | 0% | 0% | plant injury at 125 g/ha (corn (Zea mays)): 0%; plant injury at 500 g/ha (corn (Zea mays)): 0%; pest or weed control at 125 g/ha [11]: 30%; pest or weed control at 500 g/ha [11]: 70%; pest or weed control at 125 g/ha [12]: 0%; pest or weed control at 500 g/ha [12]: 20%; pest or weed control at 125 g/ha [13]: 0%; pest or weed control at 500 g/ha [13]: 0%; pest or weed control at 125 g/ha [14]: 0%; pest or weed control at 500 g/ha [14]: 0%; plant injury at 125 g/ha [15]: 0%; plant injury at 500 g/ha [15]: 0%
2 | CN1CC[C@H](c2ccc(C(F)(F)F)cc2)[C@@H](C(=O)Nc2ccc(F)c(F)c2F)C1=O [Compound 1226] | 60% | 70% | 90% | 100% | 100% | 100% | 80% | 90% | 0% | 30% | 80% | 80% | 80% | 80% | 60% | 60% | 100% | 100% | 20% | 30% | plant injury at 125 g/ha (corn (Zea mays)): 30%; plant injury at 500 g/ha (corn (Zea mays)): 70%; pest or weed control at 125 g/ha [11]: 80%; pest or weed control at 500 g/ha [11]: 80%; pest or weed control at 125 g/ha [12]: 20%; pest or weed control at 500 g/ha [12]: 60%; pest or weed control at 125 g/ha [13]: 0%; pest or weed control at 500 g/ha [13]: 50%; pest or weed control at 125 g/ha [14]: 0%; pest or weed control at 500 g/ha [14]: 0%; plant injury at 125 g/ha [15]: 0%; plant injury at 500 g/ha [15]: 0%
